Drawing on ChEMBL document CHEMBL2046272, “Ligand Promiscuity between the Efflux Pumps Human P-Glycoprotein and S. aureus NorA” (ACS Med Chem Lett, 2012), this text covers inhibition and MIC for 33 compounds.

Converted amounts (≈) assume the structure as drawn.

The target in data set [1] is T1, MDR1 (P-glycoprotein, ABCB1) (Homo sapiens, UniProt P08183). Description: in vitro.
Description: Inhibition of human recombinant MDR1 expressed in mouse L5178Y cells assessed as inhibition of rhodamine-123 efflux at 10^-4 M preincubated for 10 mins measured after 20 mins by FACS analysis
Data set [2] concerns the target T1, MDR1 (P-glycoprotein, ABCB1). In words: Inhibition of human recombinant MDR1 expressed in mouse L5178Y cells assessed as inhibition of rhodamine-123 efflux at 10^-5 M preincubated for 10 mins measured after 20 mins by FACS analysis. As to conditions: mouse L5178Y cells expressing human recombinant MDR1, probe rhodamine-123. The class given is cell-based.
The target in data set [3] is T2, Quinolone resistance protein NorA (Staphylococcus aureus) (UniProt P0A0J7).
T2 sequence (whole entry): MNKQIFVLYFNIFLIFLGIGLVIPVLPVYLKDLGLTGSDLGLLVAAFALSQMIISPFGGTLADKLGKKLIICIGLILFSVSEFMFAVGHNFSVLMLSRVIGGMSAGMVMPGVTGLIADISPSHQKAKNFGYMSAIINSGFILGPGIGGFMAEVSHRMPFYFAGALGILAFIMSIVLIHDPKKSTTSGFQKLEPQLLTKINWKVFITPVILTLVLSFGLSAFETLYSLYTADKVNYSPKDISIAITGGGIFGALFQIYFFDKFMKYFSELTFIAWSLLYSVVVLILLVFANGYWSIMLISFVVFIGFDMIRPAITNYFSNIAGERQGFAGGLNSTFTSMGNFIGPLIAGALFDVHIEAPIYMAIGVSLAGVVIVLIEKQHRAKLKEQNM
The conditions noted are these: SA-1199B, at 50 µM.
Description: Inhibition of norA-mediated ethidium bromide efflux in Staphylococcus aureus SA-1199B harboring grlA A116E mutant at 50 uM after 5 mins by fluorometric analysis

Data set [4] has as its system Staphylococcus aureus. Description: microbe, parasite or virus in culture. The class given is functional. The conditions noted are these: SA-1199B.
Description: Antibacterial activity against Staphylococcus aureus SA-1199B harboring grlA A116E mutant by microdilution techniques
Setting [5] is: mouse L5178Y cells expressing human recombinant MDR1, probe rhodamine-123.

For the compound `Cn1cccc1-c1nc2cc(NC(=O)c3ccccc3)ccc2[nH]1`, in data set [1] (setting [5]), the inhibition at 20 min, 100 µM stood at 1.6%. With `Cc1ccc(S(=O)(=O)Nc2ccc3nc(-c4cccn4C)[nH]c3c2)cc1`, the inhibition at 20 min, 100 µM in data set [1] (setting [5]) turned out to be 4.3%.

For `O=C1NC(=O)/C(=C/c2ccc(-c3cc(C(=O)O)ccc3Cl)o2)S1`, the inhibition at 20 min, 100 µM in data set [1] (setting [5]) was determined as 2.6%.

On to `C[C@@H](NCc1cccc(OCc2ccccc2)c1)[C@@H](O)c1ccccc1`, for which the inhibition at 20 min, 10 µM in data set [2] was 7.8%. Take `CC[C@H]1CCc2nc(SCc3ccc(C(=O)O)cc3)c(C#N)c(C(F)(F)F)c2C1`: in data set [2], the inhibition at 20 min, 10 µM was determined as 0.6%. Still for that read-out and setting: with `CC[C@H](C)N1C(=O)S/C(=C/c2ccc(-c3cc(C(=O)O)ccc3Cl)o2)C1=O` the figure was 0.7%. On to `Cc1ccc(S(=O)(=O)Nc2ccc3c(c2)ncn3-c2ccccc2)cc1`, for which the inhibition at 20 min, 100 µM in data set [1] (setting [5]) stood at 2.3%. The same measure, in the same setting: with `Cc1ccc(S(=O)(=O)Nc2ccc3c(c2)nc(C)n3Cc2ccccc2)cc1` the figure was 21.7%; with `c1ccc(CCN(Cc2ccccc2)Cc2cccc(OCc3ccccc3)c2)cc1`, 2.2%; with `COc1cccc(CNC(C)C(O)c2ccccc2)c1` (configuration not stated), 2.1%. For `N#Cc1c(C(F)(F)F)cc(Cc2ccccc2)nc1SCc1ccc(C(=O)O)cc1`, the inhibition at 20 min, 100 µM in data set [1] (setting [5]) came to 2.6%. As for `N#Cc1c(SCc2ccc(Cl)nc2)nc2c(c1C(F)(F)F)CCCC2`, the inhibition at 20 min, 100 µM in data set [1] (setting [5]) is 20.4%. Turning to `CCC(C)N1C(=O)S/C(=C\c2ccc(-c3cc(C(=O)O)ccc3Cl)o2)C1=O` (configuration not stated), in data set [2], the inhibition at 20 min, 10 µM turned out to be 1.7%. For the compound `CCC(C)N1C(=O)S/C(=C\c2ccc(N3CCCC3)o2)C1=O` (configuration not stated), the inhibition at 20 min, 100 µM in data set [1] (setting [5]) came to 11.3%.

In the case of `CCCOc1ccc(-c2cc(=O)c3ccccc3n2C)cc1`, in data set [1] (setting [5]), the inhibition at 20 min, 100 µM worked out at 1.9%. With `CCN(CC)CCOc1ccc(-c2cc(=O)c3ccccc3n2C)cc1`, in data set [2], the inhibition at 20 min, 10 µM was found to be 2.6%. For the compound `CN(C)CCOc1ccc(-c2cc(=O)c3ccccc3n2C)cc1`, in data set [1] (setting [5]), the inhibition at 20 min, 100 µM is 3.2%. On the same count and under the same terms, with `CCOC(=O)c1cn(C2CC2)c2cc(N3CCC4=C(C3)/C(=N/O)C(C)CS4)c(N)cc2c1=O` (configuration not stated) the figure was 40.6%. On to `CCOC(=O)c1cn(C2CC2)c2cc(N3CCC4=C(C3)/C(=N/OC)C(C)CS4)c(N)cc2c1=O` (configuration not stated), for which the inhibition at 20 min, 100 µM in data set [1] (setting [5]) was determined as 16.8%. Regarding `COc1ccc(C2=Nc3ccccc3SC2)cc1OC`, the inhibition at 20 min, 100 µM in data set [1] (setting [5]) is 44.1%. The same measure, in the same setting: with `COc1cc(C2=Nc3ccccc3SC2)cc(OC)c1OC` the figure was 64.7%. The compound `C=C[C@H]1CN2CC[C@H]1C[C@@H]2[C@@H](O)c1ccnc2ccc(OC)cc12` gave an inhibition in data set [3] of 31.5%. Consider `C=CCc1ccccc1OCC(O)CNC(C)C` (configuration not stated) [ALPRENOLOL], for which the inhibition at 20 min, 100 µM in data set [1] (setting [5]) is 5%.

`CCOC(=O)C1=C(COCCN)NC(C)=C(C(=O)OC)C1c1ccccc1Cl` (configuration not stated) [AMLODIPINE]: in data set [2], the inhibition at 20 min, 10 µM came out at 52.8%. For the same compound, the inhibition in data set [3] is 60.6%. For the compound `CCN(CC)CCCN(c1ccccc1)C1Cc2ccccc2C1` [APRINDINE], in data set [1] (setting [5]), the inhibition at 20 min, 100 µM was 16%. In data set [3], the inhibition was found to be 51.6%. As for `O=C1CCc2ccc(OCCCCN3CCN(c4cccc(Cl)c4Cl)CC3)cc2N1` [ARIPIPRAZOLE], the inhibition at 20 min, 100 µM in data set [1] (setting [5]) worked out at 99%. Further, in data set [4], the MIC is above 100 µg/mL. For the same compound, the inhibition in data set [3] was 92.3%.

Consider `COc1ccc(CCN2CCC(Nc3nc4ccccc4n3Cc3ccc(F)cc3)CC2)cc1` [ASTEMIZOLE], for which the inhibition at 20 min, 10 µM in data set [2] amounted to 12.8%. Moreover, the MIC in data set [4] came to 100 µg/mL (≈ 218 µM). The same compound yielded an inhibition in data set [3] of 80.6%. `CC(C)(C)c1ccc(C(=O)CCCN2CCC(OC(c3ccccc3)c3ccccc3)CC2)cc1` [EBASTINE]: the MIC in data set [4] was above 100 µg/mL. Also, in data set [3], the inhibition amounted to 88.3%.

As for `CN(C)C(=O)C(CCN1CCC(O)(c2ccc(Cl)cc2)CC1)(c1ccccc1)c1ccccc1` [LOPERAMIDE], the inhibition at 20 min, 10 µM in data set [2] was determined as 4.5%. The same compound had an MIC in data set [4] above 100 µg/mL. Besides, the inhibition in data set [3] turned out to be 77.7%. In data set [1] (l5178y), `C=C[C@H]1C[N@@]2CC[C@H]1C[C@@H]2[C@@H](O)c1ccnc2ccc(OC)cc12` [QUINIDINE] gave an inhibition at 20 min, 100 µM of 21.1%. For the compound `CCOc1cc(CC(=O)N[C@@H](CC(C)C)c2ccccc2N2CCCCC2)ccc1C(=O)O` [REPAGLINIDE], the inhibition at 20 min, 100 µM in data set [1] (setting [5]) was determined as 35%. In addition, the inhibition in data set [3] was determined as 14%.

Regarding `O=C1NCCN1CCN1CCC(c2cn(-c3ccc(F)cc3)c3ccc(Cl)cc23)CC1` [SERTINDOLE], the inhibition at 20 min, 100 µM in data set [1] (setting [5]) was determined as 74%. In data set [4], this compound yielded an MIC of 25 µg/mL (≈ 56.7 µM). The inhibition in data set [3] stood at 81.8%. For `O=C1Cc2cc(CCN3CCN(c4nsc5ccccc45)CC3)c(Cl)cc2N1` [ZIPRASIDONE] the same measures were 19%, above 100 µg/mL and 86.6%.

A word on the inhibition: it is how much of the control response was suppressed.
